Source: patent US7998974B2, “Fused heterocyclic compounds and their use as sirtuin modulators” (Sirtris Pharmaceuticals, Inc., priority 2005, dated 2011)

Target: T1, SIRT1 (Homo sapiens, UniProt Q96EB6)
T1 sequence (Q96EB6 1-747): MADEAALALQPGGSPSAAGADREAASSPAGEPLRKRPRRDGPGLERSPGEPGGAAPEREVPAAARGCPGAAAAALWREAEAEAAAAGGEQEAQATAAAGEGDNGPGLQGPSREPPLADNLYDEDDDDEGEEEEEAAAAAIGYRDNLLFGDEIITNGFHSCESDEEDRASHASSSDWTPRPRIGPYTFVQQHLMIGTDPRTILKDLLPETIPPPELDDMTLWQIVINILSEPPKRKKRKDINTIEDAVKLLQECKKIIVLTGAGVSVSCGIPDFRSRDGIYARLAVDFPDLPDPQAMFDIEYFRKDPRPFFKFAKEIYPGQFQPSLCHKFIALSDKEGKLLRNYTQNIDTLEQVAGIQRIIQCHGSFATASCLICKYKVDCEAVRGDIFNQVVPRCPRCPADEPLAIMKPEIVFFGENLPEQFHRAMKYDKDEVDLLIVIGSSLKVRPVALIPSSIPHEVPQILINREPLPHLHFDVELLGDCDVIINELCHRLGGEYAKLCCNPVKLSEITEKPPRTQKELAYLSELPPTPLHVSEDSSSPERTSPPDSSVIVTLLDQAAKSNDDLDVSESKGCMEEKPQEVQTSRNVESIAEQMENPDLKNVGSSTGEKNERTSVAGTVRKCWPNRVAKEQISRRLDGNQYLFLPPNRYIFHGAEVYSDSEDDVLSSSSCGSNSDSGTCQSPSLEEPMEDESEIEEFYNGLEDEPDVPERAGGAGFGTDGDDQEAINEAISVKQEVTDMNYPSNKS
Experiment: Fluorescence polarization or mass spectrometry based assay to identify modulators of SIRT1 activity;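 further: deacetylation of a fluorophore-tagged p53-derived acetyl peptide by SIRT1, detected as fluorescence polarization after trypsin cleavage and streptavidin binding, compounds tested at 11 doses from 0.7 to 100 µM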
Format: biochemical
Details: for EC50: activation of SIRT1 (Table 3), read-out: ED50 (the source's name)

Compound	EC50 [µM]	IC50 (inhibition of SIRT1 (Table 4)) [µM]
COc1ccccc1NC(=O)Nc1nn(C)c2cccc(OC)c12 [Compound 7]	101 to 150	–
CC(=O)Nc1ccc(-c2nc3c(C(=O)NC4CCC(N)CC4)cccn3c2NC2CCCCC2)cc1 (stereo not drawn) [Compound 27]	51 to 100	–
O=C(Nc1ccc(-c2nc3c(C(=O)NCCCN4CCCC4=O)cccn3c2NC2CCCCC2)cc1)c1ccco1 [Compound 59]	101 to 150	–
COC(=O)c1[nH]c2cc(OC)c(OC)cc2c1NC(=O)c1cccc(OC)c1 [Compound 22]	> 150	–
O=C(O)CC(NC(=O)c1cccn2c(NCc3ccccc3)c(-c3ccc4ccccc4c3)nc12)C1CCCCC1 (stereo not drawn) [Compound 38]	> 150	–
COCCNC(=O)c1cccn2c(NCc3ccccc3)c(-c3ccc(NC(=O)C4CC4)cc3)nc12 [Compound 51]	51 to 100	–
COc1ccc(-c2nc3cc(C(=O)NC(CC(=O)O)c4ccc(C)cc4)ccn3c2NC2CCCCC2)cc1OC (stereo not drawn) [Compound 39]	101 to 150	–
COc1cccc(C(=O)Nc2cccc(-c3cn4ccccc4n3)c2)c1 [Compound 23]	> 150	–
O=C(Nc1cccc(-c2nc3ccccc3[nH]2)c1)c1ccco1 [Compound 25]	51 to 100	–
COCCNC(=O)c1cccn2c(NCc3ccccc3)c(-c3ccc(NC(=O)N4CCOCC4)cc3)nc12 [Compound 49]	51 to 100	–
O=C(Nc1cccc(-c2nc3ccccc3[nH]2)c1)c1cccnc1 [Compound 3]	> 150	–
CCCCNc1c(-c2ccc(OC)c([N+](=O)[O-])c2)nc2c(C(=O)NCCCN)cccn12 [Compound 33]	101 to 150	–
CC(=O)NCCNC(=O)c1cccn2c(NCc3ccccc3)c(-c3ccc(NC(=O)c4ccco4)cc3)nc12 [Compound 52]	101 to 150	–
O=C(Nc1ccc(-c2nc3c(C(=O)NCCN4CCNC4=O)cccn3c2NCc2ccccc2)cc1)c1ccco1 [Compound 54]	> 150	–
COc1ccc(-c2nc3cc(C(=O)NCc4cccc(CN)c4)ccn3c2NC2CCCCC2)cc1[N+](=O)[O-] [Compound 40]	101 to 150	–
CCCCNc1c(-c2ccc(OC)c([N+](=O)[O-])c2)nc2c(C(=O)NC(CC(=O)O)C3CCCCC3)cccn12 (stereo not drawn) [Compound 28]	101 to 150	–
Cc1cc(C(=O)Nc2ccc(-c3nc4c(C(=O)NCCN5CCNC5=O)cccn4c3NCc3ccccc3)cc2)no1 [Compound 55]	> 150	–
O=C(NCCN1CCNC1=O)c1cccn2c(NCc3ccccc3)c(-c3ccc(NC(=O)N4CCOCC4)cc3)nc12 [Compound 53]	101 to 150	–
O=C(NCCCN1CCCC1=O)c1cccn2c(NC3CCCCC3)c(-c3ccc(NC(=O)N4CCOCC4)cc3)nc12 [Compound 58]	< 50	–

Compound	EC50 [µM]	IC50 (inhibition of SIRT1 (Table 4)) [µM]
CC(=O)Nc1ccc(-c2nc3c(C(=O)NCc4cccc(CN)c4)cccn3c2NCc2ccccc2)cc1 [Compound 35]	51 to 100	–
N#C/C(=C\c1ccc(-c2ccc(C(=O)O)cc2)o1)c1nc2ccccc2[nH]1 [Compound 9]	< 50	–
COC(=O)c1[nH]c2cc(OC)c(OC)cc2c1NC(=O)c1cccs1 [Compound 20]	101 to 150	–
COc1ccc2nc3s/c(=C\c4ccc(-c5ccc(Cl)c(C(=O)O)c5)o4)c(=O)n3c2c1 [Compound 10]	< 50	–
Nc1ccc(C(=O)Nc2ccc3[nH]c(-c4ccccc4)nc3c2)cc1 [Compound 4]	51 to 100	–
COc1cccc(-c2nc3c(C(=O)NC(C)C(=O)NCCC#N)cccn3c2NC2CCCCC2)c1 (stereo not drawn) [Compound 46]	51 to 100	–
COc1ccc(-c2nc3c(C(=O)NC(CC(=O)O)C4CCCCC4)cccn3c2NCc2ccccc2)cc1[N+](=O)[O-] (stereo not drawn) [Compound 31]	> 150	–
N#CC(C(=O)c1cc2ccccc2o1)c1nc2ccccc2s1 (stereo not drawn) [Compound 12]	51 to 100	–
O=C(O)CCC(=O)Nc1cccc(-c2nc3cc4ccccc4cc3[nH]2)c1 [Compound 65]	> 150	–
CC(=O)Nc1ccc(-c2nc3c(C(=O)NC(C)C(=O)NCCCN4CCCC4=O)cccn3c2NCc2ccccc2)cc1 (stereo not drawn) [Compound 41]	101 to 150	–
Cc1nn(C)c(Cl)c1-c1nc2c(C(=O)NC(C)C(=O)NCCC#N)cccn2c1NCc1ccccc1 (stereo not drawn) [Compound 48]	101 to 150	–
CN(C)/C=C(\C#N)c1nc2ccccc2[nH]1 [Compound 64]	51 to 100	–
O=C(Nc1c(C(=O)O)[nH]c2ccc(Br)cc12)c1ccc(F)cc1 [Compound 21]	51 to 100	–
N#Cc1cc(Oc2nc3ccccc3s2)c(N2CCOCC2)cc1C#N [Compound 13]	101 to 150	–
COc1ccc(-c2nc3c(C(=O)NCCCN)cccn3c2NCc2ccccc2)cc1[N+](=O)[O-] [Compound 34]	101 to 150	–
COc1cc(/C=C(\C#N)c2nc3ccccc3[nH]2)cc(OC)c1OC [Compound 24]	101 to 150	–
CCCCNc1c(-c2ccc(NC(=O)CC(C)C)cc2)nc2c(C(=O)NCCN3CCNC3=O)cccn12 [Compound 56]	> 150	–
COc1cc(C(=O)Nc2cccc(-c3nc4ccccc4[nH]3)c2)cc(OC)c1OC [Compound 11]	51 to 100	–
Cc1cccc(-c2nc3c(C(=O)NC4CCC(N)CC4)cccn3c2NCc2ccccc2)c1 (stereo not drawn) [Compound 26]	101 to 150	–

Compound	EC50 [µM]	IC50 (inhibition of SIRT1 (Table 4)) [µM]
CC(=O)Nc1ccc(-c2nc3c(C(=O)NCC(=O)NCCC#N)cccn3c2NCc2ccccc2)cc1 [Compound 47]	51 to 100	–
COCCNC(=O)c1cccn2c(NCc3ccccc3)c(-c3ccc(NC(=O)c4ccco4)cc3)nc12 [Compound 50]	> 150	–
CCCCNc1c(-c2ccc(NC(=O)c3ccc(Cl)nc3)cc2)nc2c(C(=O)NCCCN3CCCC3=O)cccn12 [Compound 61]	> 150	–
COc1ccc2c(c1)C(=O)C(c1nc3ccccc3s1)C2=O (stereo not drawn) [Compound 62]	< 50	–
Cc1[nH]c2ccccc2c1/C=C(\C#N)c1nc2ccccc2[nH]1 [Compound 1]	101 to 150	–
CC(C)CC(=O)Nc1ccc(-c2nc3c(C(=O)NCCN4CCNC4=O)cccn3c2NC(C)(C)C)cc1 [Compound 57]	> 150	–
COc1cccc2c1c(NC(=O)c1cc3ccccc3s1)nn2C [Compound 8]	> 150	–
Cc1csc(NC(=O)c2ccccc2C(=O)O)c1-c1nc2ccccc2s1 [Compound 6]	< 50	–
O=C(NCCCN1CCCC1=O)c1cccn2c(NC3CCCCC3)c(-c3ccc(NC(=O)C4CC4)cc3)nc12 [Compound 60]	51 to 100	–
Cc1[nH]c2ccccc2c1/C=C/c1nc2ccccc2c(=O)[nH]1 [Compound 17]	> 150	–
Nc1ccc2[nH]c(-c3cccc(-c4nc5cc(N)ccc5[nH]4)c3)nc2c1 [Compound 16]	51 to 100	–
Nc1ccc2nc(-c3ccc(-c4nc5ccc(N)cc5[nH]4)cc3)[nH]c2c1 [Compound 15]	51 to 100	–
COc1ccc(-c2nc3c(C(=O)NC(C)C(=O)NCCC#N)cccn3c2NCC2CCCO2)cc1 (stereo not drawn) [Compound 44]	101 to 150	–
N#CCCNC(=O)CNC(=O)c1cccn2c(NCC3CCCO3)c(-c3ccc(Cl)cc3)nc12 (stereo not drawn) [Compound 42]	51 to 100	–
Cc1nc2cc3nc4c5cccc6cccc(c(=O)n4c3cc2[nH]1)c65 [Compound 66]	101 to 150	–
CC(=O)Nc1ccc(-c2nc3c(C(=O)NC(CC(=O)O)C4CCCCC4)cccn3c2NC(C)(C)C)cc1 (stereo not drawn) [Compound 36]	101 to 150	–
Nc1ccc2[nH]c(/C=C/c3nc4cc(N)ccc4[nH]3)nc2c1 [Compound 18]	51 to 100	–
COC(=O)CC(=O)Nc1ccccc1-c1nc2ccc(C(=O)NCc3ccc4c(c3)OCO4)cn2c1NC1CCCCC1 [Compound 84]	–	< 50
Cc1ccsc1/C=C(\C#N)c1nc2ccccc2[nH]1 [Compound 19]	101 to 150	–
